In PubChem BioAssay AID1963843 (Molecular Pharmacology Branch, DTP, NCI, 2024):

System: 616215-338-R-J1-PDC complex spheroid viability
Assay: Anticancer human tumor 616215-338-R-J1-PDC patient-derived colon adenocarcinoma cell line growth inhibition [POLQ]
Conditions: for IC50: curve of first compound; for viability, T/C: stronger effect = lower value
Procedure, shortened: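 Growth inhibition in 3D: complex spheroids (tumor PDC, HUVEC, MSC) treated with POLQ inhibitor combinations; where Cmax unknown, highest tested concentration 10 microM, except SN-38 at 1 microM.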

[1] = second compound 0.0316 µM, first compound 0.0316 µM
[2] = second compound 0.0316 µM, first compound 0.1 µM
[3] = second compound 0.0316 µM, first compound 0.316 µM
[4] = second compound 0.0316 µM, first compound 1 µM
[5] = second compound 0.0316 µM, first compound 3.16 µM
[6] = second compound 0.0316 µM, first compound 10 µM
[7] = second compound 0.1 µM, first compound 0.0316 µM
[8] = second compound 0.1 µM, first compound 0.1 µM
[9] = second compound 0.1 µM, first compound 0.316 µM
[10] = second compound 0.1 µM, first compound 1 µM
[11] = second compound 0.1 µM, first compound 3.16 µM
[12] = second compound 0.1 µM, first compound 10 µM
[13] = second compound 0.316 µM, first compound 0.0316 µM
[14] = second compound 0.316 µM, first compound 0.1 µM
[15] = second compound 0.316 µM, first compound 0.316 µM
[16] = second compound 0.316 µM, first compound 1 µM
[17] = second compound 0.316 µM, first compound 3.16 µM
[18] = second compound 0.316 µM, first compound 10 µM
[19] = second compound 1 µM, first compound 0.0316 µM
[20] = second compound 1 µM, first compound 0.1 µM
[21] = second compound 1 µM, first compound 0.316 µM
[22] = second compound 1 µM, first compound 1 µM
[23] = second compound 1 µM, first compound 3.16 µM
[24] = second compound 1 µM, first compound 10 µM
[25] = second compound 3.16 µM, first compound 0.0316 µM
[26] = second compound 3.16 µM, first compound 0.1 µM
[27] = second compound 3.16 µM, first compound 0.316 µM
[28] = second compound 3.16 µM, first compound 1 µM
[29] = second compound 3.16 µM, first compound 3.16 µM
[30] = second compound 3.16 µM, first compound 10 µM
[31] = second compound 10 µM, first compound 0.0316 µM
[32] = second compound 10 µM, first compound 0.1 µM
[33] = second compound 10 µM, first compound 0.316 µM
[34] = second compound 10 µM, first compound 1 µM
[35] = second compound 10 µM, first compound 3.16 µM
[36] = second compound 10 µM, first compound 10 µM
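Further: spheroids exposed to compounds for one week before readout.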
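Wherever viability, T/C is given: percent viability relative to DMSO vehicle wells taken as 100%.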

COc1cc2cc(C(=O)CCC(=O)O)sc2cc1OC + Cc1cccc(N(C)C(=O)C2C(O)CCN2c2nc(C)cc(C(F)(F)F)c2C#N)c1
IC50 (second compound 0.0316 µM): > 10 µM | IC50 (second compound 0.1 µM): > 10 µM | IC50 (second compound 0.316 µM): > 10 µM | IC50 (second compound 1 µM): > 10 µM | IC50 (second compound 3.16 µM): > 10 µM | IC50 (second compound 10 µM): > 10 µM | viability, T/C [1]: 99.9% | viability, T/C [2]: 99.6% | viability, T/C [3]: 92% | viability, T/C [4]: 104% | viability, T/C [5]: 117% | viability, T/C [6]: 95.9% | viability, T/C [7]: 100% | viability, T/C [8]: 109% | viability, T/C [9]: 109% | viability, T/C [10]: 108% | viability, T/C [11]: 116% | viability, T/C [12]: 102% | viability, T/C [13]: 96% | viability, T/C [14]: 103% | viability, T/C [15]: 102% | viability, T/C [16]: 109% | viability, T/C [17]: 103% | viability, T/C [18]: 101% | viability, T/C [19]: 105% | viability, T/C [20]: 101% | viability, T/C [21]: 95.2% | viability, T/C [22]: 107% | viability, T/C [23]: 106% | viability, T/C [24]: 92.4% | viability, T/C [25]: 110% | viability, T/C [26]: 102% | viability, T/C [27]: 104% | viability, T/C [28]: 102% | viability, T/C [29]: 112% | viability, T/C [30]: 99.3% | viability, T/C [31]: 109% | viability, T/C [32]: 102% | viability, T/C [33]: 99.6% | viability, T/C [34]: 98.3% | viability, T/C [35]: 119% | viability, T/C [36]: 85.1%

CC(=O)O[C@H]1C(=O)[C@@]2(C)[C@H]([C@H](OC(=O)c3ccccc3)[C@]3(O)C[C@H](OC(=O)[C@H](O)[C@@H](NC(=O)c4ccccc4)c4ccccc4)C(C)=C1C3(C)C)[C@]1(OC(C)=O)CO[C@@H]1C[C@@H]2O + Cc1cccc(N(C)C(=O)C2C(O)CCN2c2nc(C)cc(C(F)(F)F)c2C#N)c1
IC50 (second compound 0.0316 µM): < 0.00949 µM | IC50 (second compound 0.1 µM): < 0.00949 µM | IC50 (second compound 0.316 µM): < 0.00949 µM | IC50 (second compound 1 µM): < 0.00949 µM | IC50 (second compound 3.16 µM): < 0.00949 µM | IC50 (second compound 10 µM): < 0.00949 µM | viability, T/C (second compound 0.0316 µM, first compound 0.00949 µM): 34.7% | viability, T/C (second compound 0.0316 µM, first compound 0.03 µM): 20.2% | viability, T/C (second compound 0.0316 µM, first compound 0.0949 µM): 20.4% | viability, T/C (second compound 0.0316 µM, first compound 0.3 µM): 18.9% | viability, T/C (second compound 0.0316 µM, first compound 0.949 µM): 19.3% | viability, T/C (second compound 0.0316 µM, first compound 3 µM): 19.1% | viability, T/C (second compound 0.1 µM, first compound 0.00949 µM): 31.6% | viability, T/C (second compound 0.1 µM, first compound 0.03 µM): 22.5% | viability, T/C (second compound 0.1 µM, first compound 0.0949 µM): 17.3% | viability, T/C (second compound 0.1 µM, first compound 0.3 µM): 21.5% | viability, T/C (second compound 0.1 µM, first compound 0.949 µM): 17.3% | viability, T/C (second compound 0.1 µM, first compound 3 µM): 17.4% | viability, T/C (second compound 0.316 µM, first compound 0.00949 µM): 39.5% | viability, T/C (second compound 0.316 µM, first compound 0.03 µM): 23.8% | viability, T/C (second compound 0.316 µM, first compound 0.0949 µM): 22.5% | viability, T/C (second compound 0.316 µM, first compound 0.3 µM): 15.8% | viability, T/C (second compound 0.316 µM, first compound 0.949 µM): 17.7% | viability, T/C (second compound 0.316 µM, first compound 3 µM): 16.4% | viability, T/C (second compound 1 µM, first compound 0.00949 µM): 36% | viability, T/C (second compound 1 µM, first compound 0.03 µM): 27.6% | viability, T/C (second compound 1 µM, first compound 0.0949 µM): 22.1% | viability, T/C (second compound 1 µM, first compound 0.3 µM): 13.1% | viability, T/C (second compound 1 µM, first compound 0.949 µM): 19% | viability, T/C (second compound 1 µM, first compound 3 µM): 18.8% | viability, T/C (second compound 3.16 µM, first compound 0.00949 µM): 40.9% | viability, T/C (second compound 3.16 µM, first compound 0.03 µM): 21.6% | viability, T/C (second compound 3.16 µM, first compound 0.0949 µM): 23.9% | viability, T/C (second compound 3.16 µM, first compound 0.3 µM): 15.6% | viability, T/C (second compound 3.16 µM, first compound 0.949 µM): 21.7% | viability, T/C (second compound 3.16 µM, first compound 3 µM): 17.4% | viability, T/C (second compound 10 µM, first compound 0.00949 µM): 33.5% | viability, T/C (second compound 10 µM, first compound 0.03 µM): 26.9% | viability, T/C (second compound 10 µM, first compound 0.0949 µM): 21.2% | viability, T/C (second compound 10 µM, first compound 0.3 µM): 14.6% | viability, T/C (second compound 10 µM, first compound 0.949 µM): 21.6% | viability, T/C (second compound 10 µM, first compound 3 µM): 14.6%

CCc1cc2c(N3CCc4c(cc(Cn5ccnc5)cc4-c4cn(C)nc4C(F)(F)F)C3=O)cc(C)nc2c(OC)n1 + Nc1ccc(C#CCN(C(=O)Cc2ncc(C(F)(F)F)cc2C(F)(F)F)c2ccc(F)cc2)nn1
IC50 (second compound 0.0316 µM): 2.53 µM | IC50 (second compound 0.1 µM): 2.96 µM | IC50 (second compound 0.316 µM): 2.46 µM | IC50 (second compound 1 µM): 2.41 µM | IC50 (second compound 3.16 µM): 2.62 µM | IC50 (second compound 10 µM): 1.42 µM | viability, T/C [1]: 106% | viability, T/C [2]: 108% | viability, T/C [3]: 80.2% | viability, T/C [4]: 62% | viability, T/C [5]: 51% | viability, T/C [6]: 38.5% | viability, T/C [7]: 123% | viability, T/C [8]: 101% | viability, T/C [9]: 68.7% | viability, T/C [10]: 60.9% | viability, T/C [11]: 54.3% | viability, T/C [12]: 40% | viability, T/C [13]: 105% | viability, T/C [14]: 111% | viability, T/C [15]: 75.8% | viability, T/C [16]: 61.5% | viability, T/C [17]: 51.5% | viability, T/C [18]: 40.1% | viability, T/C [19]: 115% | viability, T/C [20]: 108% | viability, T/C [21]: 91.5% | viability, T/C [22]: 57% | viability, T/C [23]: 51.8% | viability, T/C [24]: 41.9% | viability, T/C [25]: 112% | viability, T/C [26]: 111% | viability, T/C [27]: 78.2% | viability, T/C [28]: 63.6% | viability, T/C [29]: 51.1% | viability, T/C [30]: 38.4% | viability, T/C [31]: 99.4% | viability, T/C [32]: 98.2% | viability, T/C [33]: 74.9% | viability, T/C [34]: 53.3% | viability, T/C [35]: 45.8% | viability, T/C [36]: 41.4%
